Where no end group is shown, it is not given here.
Tested on: subjects with bilateral patello-femoral knee osteoarthritis
Assay: Randomized double-blind placebo-controlled clinical study, safety and tolerability
Format: in vivo, human
Experimental: A multicenter, randomized double-blind, placebo controlled study was designed to investigate the safety, tolerability, pharmacokinetics, and efficacy of TPX-100 administered in four weekly doses in subjects with bilateral patello-femoral knee osteoarthritis. The study was conducted under an open IND (investigational new drug application) at CDER (Center for Drug Evaluation and Research) of the U.S. FDA (The United States Food and Drug Administration) in compliance with GCP (Good Clinical Practice) and ICH (International Conference on Harmonization of Technical Requirements for Registration of Pharmaceuticals for Human Use) guidelines. Eighteen (18) orthopedic, rheumatologic and family practice centers in the U.S. participated in the study.
The study was divided into Part A and Part B. The Part A was to evaluate safety of intra-articular (I.A.) administration of TPX-100 at different dosing levels (20, 50, 100, or 200mg per injection in sequential cohorts) in the subjects with osteoarthritis of the knees and to select a dose adopted for the Part B. The Part B was to evaluate safety and efficacy of the selected dose of TPX-100.
Subjects in Part A enrolled in sequential cohorts were randomized to receive 20, 50, 100 or 200 mg of TPX-100 in one knee and identical placebo in the contralateral knee. Active and placebo assignments were randomized, with subject, site, and sponsor blinded as to treatment assignment. A Safety Review Committee (SRC) evaluated safety in each dosing cohort. The SRC assessed safety and dose-limiting toxicities, if evident, and determined whether the next higher dosing regimen might be enrolled. Part A were completed and analyzed with regard to safety prior to dose selection and initiation of Part B. […]
The 200mg dose was selected for Part B based on review and approval by the SRC. […] The combined final number of the subjects that were analyzed for the drug efficacy for 200mg dose of TPX-100 was 93.
On the first dosing day, the randomized subjects were assessed for their general health conditions by physical examinations and vital signs. […] Subjects were monitored for adverse events during the injections and for a few hours after the injections. Vital signs were also monitored after the injections.
Subjects returned to their respective study sites at 3, 6 and 12 months after the first dosing day for follow-up evaluations. In addition, the study sites monitored the subject's condition through telephone contact 9 months after the first dosing day. During the 3, 6, and 12 months post-treatment follow-up on-site visits, subjects were evaluated by physical examination, vital signs, serum chemistry, as well as KOOS. Adverse events and concomitant medications were also recorded. […]

## TDLQERGDNDISPFSGDGQPFKD-NH2 [TPX-100]
Part A, 20, 50, 100 and 200 mg per injection, four weekly intra-articular injections
  dose-limiting toxicities: no dose-limiting toxicities
Throughout the study period
  severe adverse events: no severe adverse events likely or possibly related to the drug treatment
  treatment-related adverse events: mild or moderate, transient
Throughout the study period (12 months)
  safety and tolerability: safe and well tolerated
